Values quoted from earlier work, collected in article PMC11133798, “Vosoritide treatment for children with hypochondroplasia: a phase 2 trial” (eClinicalMedicine, 2024).
No end group written: not given here.

Key:
[1] = tested on: mouse model with Braf mutation (p.Q241R); conditions: CNP administration; ref 28 (protocol list); cited from earlier work
rat chondrosarcoma cells = conditions: CNP treatment; ref 36 (protocol list); cited from earlier work
Excerpt: Individuals with heterozygous defects in Aggrecan present with dominantly inherited short stature often with advanced bone ages and premature growth cessation 32,33.

[2] = tested on: mice deficient in Nf1 in type II collagen producing cells; conditions: daily injections of CNP; ref 27 (protocol list); cited from earlier work
[3] = tested on: rat chondrosarcoma cell lines, NPR2 homozygous knock out; conditions: ref 23 (protocol list); cited from earlier work
Excerpt: (§1) Our group identified pathogenic mutations in NPR2 in ~2% of ~400 patients presenting with short stature 22. The degree of short stature ...

[4] = tested on: rat chondrosarcoma cell lines, NPR2 heterozygous knock out; conditions: ref 23 (protocol list); cited from earlier work
Excerpt: as §1

L613V/+ mice = conditions: by 2 weeks of treatment; catch up began after 1 week; ref 26 (protocol list); cited from earlier work
Excerpt: They then proceeded to give these mice a MEK inhibitor.

[5] = tested on: children with hypochondroplasia; conditions: cited from earlier work
Excerpt: As there are no currently approved medications for hypochondroplasia, recombinant human growth hormone (rhGH) has been used off-label in patients with hypochondroplasia with variable efficacy. To date, there are no controlled trials of rhGH in children with hypochondroplasia. […] However, growth velocity slowed substantially after the first year resulting in a total increase in height ...

[6] = meta-analysis of 7 studies, 113 children with hypochondroplasia

CNP: endogenous C-type natriuretic peptide, ligand of NPR-B (GLSKGCFGLKLDRIGSMSGLGC; ends and bridges not checked; cysteine pairing not given here; UniProt P23582 105-126, looked up)
Body length [1]: increases in body length | Extracellular matrix after FGF2 administration (rat chondrosarcoma cells): rescue the loss of extracellular matrix | ERK phosphorylation and stature [2]: decreased ERK phosphorylation and corrected the short stature | cGMP response to CNP [3]: absolutely no | CNP concentration generating cGMP sufficient to activate downstream protein kinase G signaling [4]: > 0.163 nM

O=C(NOC[C@H](O)CO)c1ccc(F)c(F)c1Nc1ccc(I)cc1F [PD0325901]
Body length (L613V/+ mice): the same length as untreated WT mice

rhGH: recombinant human growth hormone used off-label in hypochondroplasia
Body disproportion ([5]; higher dose of rhGH, after three years of treatment): significant worsening of body disproportion | Mean first year increase in height SDS [5, 6]: 0.41 SD | Total increase in height after 3 years [5, 6]: 0.61 SD
